Values quoted from earlier work in patent publication US10512655B1, “Methods and compositions for the topical treatment of peripheral neuropathy” (Jeffrey S. Brooks, Inc., priority 2013, dated 2019).

What was measured:
[1] = system: patients suffering from DPN; conditions: topical, KY gel non-occlusive vehicle
[2] = system: patients with type 1 diabetes; conditions: oral, 300 mg/day over 24 months

SMILES | pain relief [1] | effects upon peripheral nerve function or soluble markers of inflammation [2]
CN1CC[C@]23c4c5ccc(O)c4O[C@H]2[C@@H](O)C=C[C@H]3[C@H]1C5 [morphine] | no pain relief | –
C/C(=C(\CCOP(=O)(O)O)SC(=O)c1ccccc1)N(C=O)Cc1cnc(C)nc1N [benfotiamine, Benfotiamine] | – | no significant effects
